Experimental data from patent US20130281298A1 (priority 2012, published 2013).

Tested on: citrus greening (HLB)
Format: in vivo, orange tree

OC[C@H]1O[C@H](O[C@H]2O[C@H](CO)[C@@H](O)[C@H](O)[C@H]2O)[C@H](O)[C@@H](O)[C@@H]1O [trehalose]
new leaf formation on apparently dead branches (as late as four months after treatment, tree seriously afflicted with citrus greening): new leaves that are formed even on apparently dead branches
condition of tree after foliar treatment (four months after one foliar treatment to the canopy of leaves, 1 gram trehalose per 1 gallon of water, 100 gallons/acre): nearly complete renewal of the tree
development of flowers (three months after single foliar treatment): prolific development of flowers
